Source: US20180037923A1, “SELECTIVE DETECTION OF LACTIC ACID AND/OR ACETIC ACID BACTERIA OR OF FUNGI” (priority 2015, published 2018)

Experiments:
[1] = tested on: Sacch. Cerevisae DSM 70449; assay: Agar plate count after contact with antifungal; assay type: cell-based, Saccharomyces cerevisae; conditions: for Agar plate count contact time 4 h: 400 mg/L
Excerpt: (§1) The word “bactericide” refers to a treatment having the effect of reducing a bacterial population by at least three decimal logarithms of colony forming units/ml on an agar plate count of a sample after treatment.
(§2) The toxicity results on yeasts and on bacteria are presented in the table below displaying the duration of exposure of the fungal flora to molecule A1 and the associated fluorescence measurement: yeasts lysis after exposure to the antifungal was confirmed by microscopic examination and methylene blue staining.
(§3) The words “contact time” refer to below, the time of exposure of the microorganisms to the fungicidal product, here molecule A1.
(§4) Below: “No CFU” is the abbreviation for “No Colony forming unit on agar plate count”.
(§5) The toxicity results on yeasts and on bacteria are presented in the table below displaying the duration of exposure of the fungal flora to the molecule A2 and are obtained by enumeration on MRS agar media.

[2] = tested on: Sacch. Cerevisae Saflager S23; assay: Agar plate count after contact with antifungal; assay type: cell-based, Saccharomyces cerevisae; conditions: 400 mg/L
Excerpt: as §1, §2, §3, §4, §5

Sacch. Diastaticus IFBM = assay: Agar plate count after contact with antifungal; assay type: cell-based, Saccharomyces diastaticus
Excerpt: as §1, §2, §3, §4, §5

[3] = tested on: Acetobacter aceti DSM 3508; assay: Agar plate count after contact with antifungal; assay type: cell-based; conditions: count at contact time 0 h 2.9.10^7 CFU/mL
Excerpt: as §1, §2, §3, §4, §5

[4] = tested on: Brettanomyces bruxellensis Wyeast labs; assay: Agar plate count after contact with antifungal; assay type: cell-based
Excerpt: as §1, §2, §3, §4, §5

Dekkera anomala IFBM = assay: Agar plate count after contact with antifungal; assay type: cell-based
Excerpt: as §1, §2, §3, §4, §5

[5] = tested on: Lactobacillus brevis IFBM; assay: Agar plate count after contact with antifungal; assay type: cell-based; conditions: count at contact time 0 h 7.10^5 CFU/mL
Excerpt: as §1, §2, §3, §4, §5

[6] = tested on: Lactobacillus lindneri DSM 20690; assay: Agar plate count after contact with antifungal; assay type: cell-based
Excerpt: as §1, §2, §3, §4, §5

[7] = tested on: Lactobacillus parabuchneri DSM 5708; assay: Agar plate count after contact with antifungal; assay type: cell-based; conditions: count at contact time 0 h 1.4.10^6 CFU/mL
Excerpt: as §1, §2, §3, §4, §5

[8] = tested on: Lactobacillus paracasei IFBM; assay: Agar plate count after contact with antifungal; assay type: cell-based; conditions: count at contact time 0 h 1.4.10^7 CFU/mL
Excerpt: as §1, §2, §3, §4, §5

[9] = tested on: Oenococcus oeni DSM 20252; assay: Agar plate count after contact with antifungal; assay type: cell-based
Excerpt: as §1, §2, §3, §4, §5

Pedicoccus damnosus IFBM = assay: Agar plate count after contact with antifungal; assay type: cell-based
Excerpt: as §1, §2, §3, §4, §5

[10] = tested on: Zyggosaccharomyces bailii; assay: Agar plate count after contact with antifungal; assay type: cell-based; conditions: 400 mg/L
Excerpt: as §1, §2, §3, §4, §5

G. oxydans DSM 7145 = assay: Agar plate count after contact with antifungal; assay type: cell-based, Gluconobacter oxydans
Excerpt: as §1, §2, §3, §4, §5

[11] = tested on: lactic acid bacteria and acetic acid bacteria; assay: Bactericidal action on the bacterial flora (conclusion from agar plate counts); assay type: cell-based; conditions: for Bactericidal action on lactic acid and acetic acid flora: bactericide = reduction by at least three decimal logarithms of CFU/ml
Excerpt: as §1, §2, §5

[12] = tested on: yeast populations versus lactic acid and acetic acid bacteria; assay: Concentration threshold for being antifungal while non-bactericidal; assay type: cell-based; conditions: estimated
Method: It is estimated that for the molecule A1 the concentration threshold allowing to obtain the effect of the invention of being non-bactericidal for the lactic acid and acetic acid bacteria while being antifungal for the yeast populations is comprised within 50 mg/l or 50 mg/l and 100 mg/l.
In order to determine whether a particular molecule is suitable for the invention, a person skilled in the art may constitute a first list of antifungal products and a second list of non-bactericidal products for bacteria and select the products appearing in the first and second list for which the fungicidal activity intervenes prior to the bactericidal activity. However, an experimental verification of the fungicidal activity will be necessary to determine the minimum antifungal concentration per mg/L or in microgram per milliliter depending on the targeted fungal flora.

[13] = 200 mg/L, count at contact time 0 h 6.10^6 CFU/mL
[14] = 400 mg/L, count at contact time 0 h 6.10^5 CFU/mL
[15] = 200 mg/L, count at contact time 0 h 4.10^9 CFU/mL
[16] = 400 mg/L, count at contact time 0 h 4.10^7 CFU/mL
[17] = 200 mg/L, count at contact time 0 h 7.2.10^5 CFU/mL
[18] = 400 mg/L, count at contact time 0 h 1.1.10^5 CFU/mL
[19] = 200 mg/L, count at contact time 0 h 8.10^8 CFU/mL
[20] = 400 mg/L, count at contact time 0 h 8.10^7 CFU/mL
[21] = count at contact time 0 h 2.10^5 CFU/mL

CCC(C)(C)c1ccc(CC(C)CN2C[C@@H](C)O[C@@H](C)C2)cc1 (some centres unmarked) [Molecule A2, Amorolfine]
Agar plate count contact time 4 h ([1]; count at contact time 0 h 5.8.10^5 CFU/mL): No CFU
Agar plate count contact time 4 h ([2]; count at contact time 0 h 3.2.10^5 CFU/mL): No CFU
Agar plate count contact time 4 h (Sacch. Diastaticus IFBM; 400 mg/L, count at contact time 0 h 2.10^6 CFU/mL): No CFU
Agar plate count contact time 4 h ([3]; 200 mg/L): 6.10^6 CFU/mL
Agar plate count contact time 4 h ([3]; 400 mg/L): 9.10^6 CFU/mL
Agar plate count contact time 4 h [4, 13]: No CFU
Agar plate count contact time 4 h ([4]; 400 mg/L, count at contact time 0 h 1.8.10^6 CFU/mL): No CFU
Agar plate count contact time 4 h (Dekkera anomala IFBM; 400 mg/L, count at contact time 0 h 5.10^3 CFU/mL): No CFU
Agar plate count contact time 4 h ([5]; 200 mg/L): 1.10^6 CFU/mL
Agar plate count contact time 4 h ([5]; 400 mg/L): 8.10^5 CFU/mL
Agar plate count contact time 4 h [6, 13]: 1.10^6 CFU/mL
Agar plate count contact time 4 h [6, 14]: 5.10^5 CFU/mL
Agar plate count contact time 4 h ([7]; 200 mg/L): 5.10^5 CFU/mL
Agar plate count contact time 4 h ([7]; 400 mg/L): 3.10^4 CFU/mL
Agar plate count contact time 4 h ([8]; 200 mg/L): 5.10^7 CFU/mL
Agar plate count contact time 4 h ([8]; 400 mg/L): 4.10^7 CFU/mL
Agar plate count contact time 4 h [9, 15]: 6.10^9 CFU/mL
Agar plate count contact time 4 h [9, 16]: 5.10^7 CFU/mL
Agar plate count contact time 4 h (Pedicoccus damnosus IFBM; [17]): 1.5.10^5 CFU/mL
Agar plate count contact time 4 h (Pedicoccus damnosus IFBM; [18]): 1.10^4 CFU/mL
Agar plate count contact time 4 h ([10]; count at contact time 0 h 2.2.10^6 CFU/mL): No CFU
Agar plate count contact time 4 h (G. oxydans DSM 7145; [19]): 1.10^9 CFU/mL
Agar plate count contact time 4 h (G. oxydans DSM 7145; [20]): 9.10^7 CFU/mL
Bactericidal action on lactic acid and acetic acid flora ([11]; doses of 200 mg/liter): neither bactericidal for the lactic acid flora nor bactericidal for the acetic acid flora
Bactericidal action on lactic acid and acetic acid flora ([11]; doses of 400 mg/liter): neither bactericidal for the lactic acid flora nor bactericidal for the acetic acid flora

C[C@@H](c1ncncc1F)[C@](O)(Cn1cncn1)c1ccc(F)cc1F [Molecule A3, voriconazole]
Agar plate count contact time 18 h (Sacch. Diastaticus IFBM; 400 mg/L, count at contact time 0 h 1.10^4 CFU/mL): No CFU
Agar plate count contact time 18 h ([3]; 200 mg/L): 6.10^6 CFU/mL
Agar plate count contact time 18 h ([3]; 400 mg/L): 4.10^7 CFU/mL
Agar plate count contact time 18 h [4, 13]: 9.10^1 CFU/mL
Agar plate count contact time 18 h ([4]; 400 mg/L, count at contact time 0 h 8.10^4 CFU/mL): No CFU
Agar plate count contact time 18 h (Dekkera anomala IFBM; 400 mg/L, count at contact time 0 h 7.10^5 CFU/mL): No CFU
Agar plate count contact time 18 h ([5]; 200 mg/L): 1.10^6 CFU/mL
Agar plate count contact time 18 h ([5]; 400 mg/L): 1.10^6 CFU/mL
Agar plate count contact time 18 h [6, 13]: 1.10^6 CFU/mL
Agar plate count contact time 18 h [6, 14]: 7.10^4 CFU/mL
Agar plate count contact time 18 h ([7]; 200 mg/L): 5.10^5 CFU/mL
Agar plate count contact time 18 h ([7]; 400 mg/L): 6.10^5 CFU/mL
Agar plate count contact time 18 h ([8]; 200 mg/L): 5.10^7 CFU/mL
Agar plate count contact time 18 h ([8]; 400 mg/L): 2.10^7 CFU/mL
Agar plate count contact time 18 h [9, 15]: 6.10^9 CFU/mL
Agar plate count contact time 18 h [9, 16]: 1.10^8 CFU/mL
Agar plate count contact time 18 h (Pedicoccus damnosus IFBM; [17]): 1.5.10^5 CFU/mL
Agar plate count contact time 18 h (Pedicoccus damnosus IFBM; [18]): 2.10^4 CFU/mL
Agar plate count contact time 18 h (G. oxydans DSM 7145; [19]): 1.10^9 CFU/mL
Agar plate count contact time 18 h (G. oxydans DSM 7145; [20]): 1.10^8 CFU/mL
Bactericidal action on lactic acid and acetic acid flora ([11]; doses of 200 mg/liter): neither bactericidal for the lactic acid flora nor bactericidal for the acetic acid flora
Bactericidal action on lactic acid and acetic acid flora ([11]; doses of 400 mg/liter): neither bactericidal for the lactic acid flora nor bactericidal for the acetic acid flora

C[C@@H]1C[C@@H]([C@H](O)CC2CC(=O)NC(=O)C2)C(=O)[C@@H](C)C1 [Molecule A4, cycloheximide]
Agar plate count contact time 18 h ([1]; Test No 2: 400 mg/L, count at contact time 0 h 5.10^4 CFU/mL): No CFU
Agar plate count contact time 18 h (Sacch. Diastaticus IFBM; Test No 2: 400 mg/L, count at contact time 0 h 4.10^4 CFU/mL): No CFU
Agar plate count contact time 18 h ([3]; 400 mg/L): 9.10^7 CFU/mL
Agar plate count contact time 18 h ([4]; Test No 2: 400 mg/L, count at contact time 0 h 7.3.10^5 CFU/mL): No CFU
Agar plate count contact time 18 h (Dekkera anomala IFBM; Test No 2: 400 mg/L, count at contact time 0 h 1.10^5 CFU/mL): 1.2.10^1 CFU/mL
Agar plate count contact time 18 h ([5]; 400 mg/L): 2.10^6 CFU/mL
Agar plate count contact time 18 h [6, 14]: 1.10^5 CFU/mL
Agar plate count contact time 18 h ([7]; 400 mg/L): 6.10^6 CFU/mL
Agar plate count contact time 18 h ([8]; 400 mg/L): 3.10^7 CFU/mL
Agar plate count contact time 18 h [9, 16]: 1.10^8 CFU/mL
Agar plate count contact time 18 h (Pedicoccus damnosus IFBM; [18]): 4.10^4 CFU/mL
Agar plate count contact time 18 h (G. oxydans DSM 7145; [20]): 1.10^8 CFU/mL
Effect on bacteria cell integrity ([11]; doses of 400 mg/liter or more): preserves bacteria cell integrity
Concentration threshold allowing to obtain the effect of the invention [12]: greater than 300 mg/l

CC[C@H](C)C[C@H](C)CCCCCCCCC(=O)N[C@H]1C[C@@H](O)[C@@H](NCCN)NC(=O)[C@@H]2[C@@H](O)CCN2C(=O)[C@H]([C@H](O)CCN)NC(=O)[C@H]([C@H](O)[C@@H](O)c2ccc(O)cc2)NC(=O)[C@@H]2C[C@@H](O)CN2C(=O)[C@H]([C@@H](C)O)NC1=O [Molecule A5, caspofungin]
Agar plate count contact time 4 h [1, 21]: No CFU
Agar plate count contact time 4 h ([2]; count at contact time 0 h 3.10^5 CFU/mL): No CFU
Agar plate count contact time 4 h (Sacch. Diastaticus IFBM; 400 mg/L, count at contact time 0 h 4.10^4 CFU/mL): No CFU
Agar plate count contact time 4 h ([3]; 200 mg/L): 1.10^5 CFU/mL
Agar plate count contact time 4 h ([3]; 400 mg/L): 2.10^6 CFU/mL
Agar plate count contact time 4 h [4, 13]: No CFU
Agar plate count contact time 4 h ([4]; 400 mg/L, count at contact time 0 h 1.7.10^4 CFU/mL): No CFU
Agar plate count contact time 4 h (Dekkera anomala IFBM; 400 mg/L, count at contact time 0 h 1.4.10^4 CFU/mL): No CFU
Agar plate count contact time 4 h ([5]; 200 mg/L): 1.10^2 CFU/mL
Agar plate count contact time 4 h ([5]; 400 mg/L): 2.10^2 CFU/mL
Agar plate count contact time 4 h [6, 13]: 9.10^1 CFU/mL
Agar plate count contact time 4 h [6, 14]: 1.10^2 CFU/mL
Agar plate count contact time 4 h ([7]; 200 mg/L): No CFU
Agar plate count contact time 4 h ([7]; 400 mg/L): No CFU
Agar plate count contact time 4 h ([8]; 200 mg/L): 1.1.10^4 CFU/mL
Agar plate count contact time 4 h ([8]; 400 mg/L): 1.10^2 CFU/mL
Agar plate count contact time 4 h [9, 15]: 6.10^9 CFU/mL
Agar plate count contact time 4 h [9, 16]: 5.10^7 CFU/mL
Agar plate count contact time 4 h (Pedicoccus damnosus IFBM; [17]): No CFU
Agar plate count contact time 4 h (Pedicoccus damnosus IFBM; [18]): No CFU
Agar plate count contact time 4 h [10, 21]: No CFU
Agar plate count contact time 4 h (G. oxydans DSM 7145; [19]): 1.10^9 CFU/mL
Agar plate count contact time 4 h (G. oxydans DSM 7145; [20]): 9.10^7 CFU/mL
Bactericidal action on acetic acid bacteria and the lactic acid bacteria oenooccus oeni ([11]; doses of 200 mg/liter): non-bactericidal
Bactericidal action on acetic acid bacteria and the lactic acid bacteria oenooccus oeni ([11]; doses of 400 mg/liter): non-bactericidal
